Results published in US9018388B2, “Pesticidal compositions and processes related thereto” (Dow AgroSciences LLC, priority 2012, dated 2015).

Key:
Type in all cases: in vivo
[1] = test system: Corn Earworm (CEW) (Helicoverpa zea); assay: Bioassay on corn earworm (CEW), 128-well diet tray assay; details: Corn earworm, 50 μg/cm^2; for pest or weed control at 50 µg/cm2, 50 µg/cm2: Helicoverpa zea, read-out: % Mortality CEW 50 μg/cm^2
Method in brief: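 Second-instar Helicoverpa zea larvae (one to five per well) placed on artificial diet treated with 50 μg/cm^2 compound in 90:10 acetone-water, dried, eight wells per compound. Held at 25 °C, 14:10 light-dark, five to seven days; percent mortality averaged over wells.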

[2] = test system: Beet Armyworm (BAW) (Spodoptera exigua); assay: Bioassay on beet armyworm (BAW), 128-well diet tray assay; details: Beet armyworm, 50 μg/cm^2; for pest or weed control at 50 µg/cm2, 50 µg/cm2: Spodoptera exigua, read-out: % Mortality BAW 50 μg/cm^2
Method in brief: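 Second-instar Spodoptera exigua larvae, one to five per well, on artificial diet treated with 50 μg/cm^2 compound in 90:10 acetone-water and dried, eight wells per compound. Held at 25 °C, 14:10 light-dark for five to seven days; percent mortality averaged over wells.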

[3] = test system: Green Peach Aphid (GPA) (Myzus persicae); assay: Bioassay on green peach aphid (GPA), foliar spray on cabbage seedlings; details: 72 h, read-out: % Mortality GPA 200 ppm
Experimental: Bioassays on Green Peach Aphid (“GPA”) (Myzus persicae)
Certain molecules disclosed in this document were tested against GPA using procedures described in the following example. In the reporting of the results, the “GPA Rating Table” was used (See Table Section).
Cabbage seedlings grown in 3-inch pots, with 2-3 small (3-5 cm) true leaves, were used as test substrate. The seedlings were infested with 20-50 GPA (wingless adult and nymph stages) one day prior to chemical application. Four pots with individual seedlings were used for each treatment. Test compounds (2 mg) were dissolved in 2 mL of acetone/methanol (1:1) solvent, forming stock solutions of 1000 ppm test compound. The stock solutions were diluted 5× with 0.025% Tween 20 in H2O to obtain the solution at 200 ppm test compound. A hand-held aspirator-type sprayer was used for spraying a solution to both sides of […] leaves until runoff. Reference plants (solvent check) were sprayed with the diluent only containing 20% by volume of acetone/methanol (1:1) solvent. Treated plants were held in a holding room for three days at approximately 25° C. and ambient relative humidity (RH) prior to grading. Evaluation was conducted by counting the number of live aphids per plant under a microscope. Percent Control was measured by using Abbott's correction formula (W. S. Abbott, “A Method of Computing the Effectiveness of an Insecticide” J. Econ. Entomol. 18 (1925), pp. 265-267) as follows. Corrected%Control=100*(X−Y)/X • where • X=No. of live aphids on solvent check plants and • Y=No. of live aphids on treated plants
The results are indicated in the table entitled “Table 5: Biological Results” (See Table Section).

Row | SMILES | pest or weed control at 50 µg/cm2, 50 µg/cm2 [1] [%] | pest or weed control at 50 µg/cm2, 50 µg/cm2 [2] [%] | pest or weed control at 200 ppm [3] [%] | % Mortality CEW 50 μg/cm^2 [1] | % Mortality BAW 50 μg/cm^2 [2]
1 | Cc1cccc(Cl)c1N1/C(=N/N=C/c2ccc(-c3ncn(-c4ccc(OC(F)(F)F)cc4)n3)cc2)SCC1C (stereo not shown) [Compound 158C] | 50 to 100 | 50 to 100 | 0 to 80 | – | –
2 | Fc1cccc(F)c1N1CCCS/C1=N\N=C\c1ccc(-c2ncn(-c3ccc(OC(F)(F)F)cc3)n2)cc1 [Compound 189C] | 50 to 100 | 50 to 100 | 0 to 80 | – | –
3 | CCOCC(=O)OCS/C(=N\c1c(C)cc(OC)cc1C)N/N=C/c1ccc(-c2ncn(-c3ccc(OC(F)(F)F)cc3)n2)cc1 [Compound 29C] | 50 to 100 | 50 to 100 | 0 to 80 | – | –
4 | Cc1cccc(C)c1/N=C(/N/N=C/c1ccc(-c2ncn(-c3ccc(OC(F)(F)F)cc3)n2)cc1)SCOC(=O)C1CCCC1 [Compound 35C] | 50 to 100 | 50 to 100 | 0 to 80 | – | –
5 | FC(F)(F)Oc1ccc(-n2cnc(-c3ccc(/C=N/N=C4\SCCN4c4ccccc4C4CC4)cc3)n2)cc1 [Compound 145C] | 50 to 100 | 50 to 100 | 0 to 80 | – | –
6 | O=C1CS/C(=N\N=C\c2ccc(-c3ncn(-c4ccc(OC(F)(F)F)cc4)n3)cc2)N1c1ccccc1C1CC1 [Compound 112C] | 50 to 100 | 50 to 100 | 0 to 80 | – | –
7 | Cc1cccc(C)c1N1C(=O)CS/C1=N\N=C\c1ccc(-c2ncn(-c3ccc(OC(F)(F)F)cc3)n2)cc1 [Compound 72C] | – | – | 0 to 80 | A (50-100) | A (50-100)
8 | Cc1cccc(C)c1/N=C(/N/N=C/c1ccc(-c2ncn(-c3ccc(OC(F)(F)F)cc3)n2)cc1)SCc1cccc2nsnc12 [Compound 14C] | 50 to 100 | 50 to 100 | 0 to 80 | – | –
9 | COc1cc(C)c(N2CCCS/C2=N\N=C\c2ccc(-c3ncn(-c4ccc(OC(F)(F)F)cc4)n3)cc2)c(C)c1 [Compound 181C] | 50 to 100 | 50 to 100 | 0 to 80 | – | –
10 | COc1ccccc1N1C(=O)CS/C1=N\N=C\c1ccc(-c2ncn(-c3ccc(OC(F)(F)F)cc3)n2)cc1 [Compound 92C] | 50 to 100 | 50 to 100 | 0 to 80 | – | –
11 | Cc1cccc(C)c1/N=C(/N/N=C/c1ccc(-c2ncn(-c3ccc(OC(F)(F)F)cc3)n2)cc1)SCc1ccc(OC(F)(F)F)cc1 [Compound 8C] | 50 to 100 | 50 to 100 | 0 to 80 | – | –
12 | COc1ccc(C(C)/N=C(/N/N=C/c2ccc(-c3ncn(-c4ccc(OC(F)(F)F)cc4)n3)cc2)SCC(=O)O)cc1 (stereo not shown) [Compound 52C] | – | 0 to 50 | 0 to 80 | – | –
13 | COc1cc(Cl)c(/N=C(/N/N=C/c2ccc(-c3ncn(-c4ccc(OC(F)(F)F)cc4)n3)cc2)SCOC(=O)C(C)C)c(Cl)c1 [Compound 34C] | – | – | 0 to 80 | – | –
14 | CCOCC(=O)OCS/C(=N\c1c(Cl)cc(OC)cc1Cl)N/N=C/c1ccc(-c2ncn(-c3ccc(OC(F)(F)F)cc3)n2)cc1 [Compound 32C] | – | – | 0 to 80 | – | –
15 | COc1ccc(C(C)/N=C(/N/N=C/c2ccc(-c3ncn(-c4ccc(OC(F)(F)F)cc4)n3)cc2)SCC(=O)O)cc1F (stereo not shown) [Compound 53C] | – | 0 to 50 | 0 to 80 | – | –
16 | CC(C)c1ccccc1/N=C1\SCCCN1/N=C/c1ccc(-c2ncn(-c3ccc(C(F)(F)F)cc3)n2)cc1 [Compound 87C, (2Z,NE)-2-((2-isopropylphenyl)imino)-N-(4-(1-(4-(trifluoromethyl)phenyl)-1H-1,2,4-triazol-3-yl)benzylidene)-1,3-thiazinan-3-amine] | – | – | 0 to 80 | – | –
